NF-κB activation data for 1 substance are collected here from US9481885B2, “Methods and compositions related to miR-21 and miR-29a, exosome inhibition, and cancer metastasis” (Ohio State Innovation Foundation, priority 2011, dated 2016).

For this data set, the target named is T1, human TLR7 (Homo sapiens, UniProt Q9NYK1).
T1 construct: host or cells: HEK-Blue TLR7 293 (TLR7-HEK-293)
T1 sequence (Q9NYK1 27-1049): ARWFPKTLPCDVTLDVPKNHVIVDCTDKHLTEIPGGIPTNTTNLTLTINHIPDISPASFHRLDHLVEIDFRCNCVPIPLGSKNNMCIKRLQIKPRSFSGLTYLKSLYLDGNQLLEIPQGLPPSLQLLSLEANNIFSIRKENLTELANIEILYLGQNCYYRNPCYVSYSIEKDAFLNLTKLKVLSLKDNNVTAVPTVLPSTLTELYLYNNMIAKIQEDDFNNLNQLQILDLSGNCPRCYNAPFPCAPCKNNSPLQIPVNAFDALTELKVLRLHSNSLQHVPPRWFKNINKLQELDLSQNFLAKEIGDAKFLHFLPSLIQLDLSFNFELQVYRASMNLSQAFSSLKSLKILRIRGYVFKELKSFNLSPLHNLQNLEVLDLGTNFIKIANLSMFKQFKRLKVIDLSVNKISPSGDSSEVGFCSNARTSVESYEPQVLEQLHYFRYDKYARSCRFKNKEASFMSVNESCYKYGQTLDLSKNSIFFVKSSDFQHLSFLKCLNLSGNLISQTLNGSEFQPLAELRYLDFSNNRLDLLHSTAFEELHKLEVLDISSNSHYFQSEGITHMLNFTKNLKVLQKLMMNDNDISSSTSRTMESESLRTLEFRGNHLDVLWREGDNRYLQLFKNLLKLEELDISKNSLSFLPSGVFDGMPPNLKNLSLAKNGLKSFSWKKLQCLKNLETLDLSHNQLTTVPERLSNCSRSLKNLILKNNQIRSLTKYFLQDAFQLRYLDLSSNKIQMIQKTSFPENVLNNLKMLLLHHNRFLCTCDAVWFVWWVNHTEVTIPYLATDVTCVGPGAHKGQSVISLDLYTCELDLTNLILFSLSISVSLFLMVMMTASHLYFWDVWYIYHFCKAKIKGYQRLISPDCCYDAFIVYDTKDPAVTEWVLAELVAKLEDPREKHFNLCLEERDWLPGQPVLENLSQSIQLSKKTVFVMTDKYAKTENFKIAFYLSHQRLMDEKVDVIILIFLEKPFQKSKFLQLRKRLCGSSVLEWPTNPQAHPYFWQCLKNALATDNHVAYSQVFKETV
The experiment in a line: NF-κB reporter assay (QUANTI-Blue) in TLR7-HEK-293 cells. It is filed as cell-based. To be noted: Dotap formulations of miRNA. Here is the method: To investigate whether miRNA-induced activation of TLRs also occurs in human cells, an NF-κB reporter assay was performed in HEK-293 cells. NF-κB, a transcription factor modulating the expression of several cytokine genes, is activated by several TLRs, including the only ssRNA-binding human TLRs, TLR7 and TLR8. Therefore, we treated HEK-293 cells expressing human TLR7 or TLR8 (hereafter, TLR7- and TLR8-HEK-293 cells, respectively) with Dotap alone or with Dotap formulations of miR-16, -21, -29a, or -147 and performed an NF-κB reporter assay. As positive controls Gardiquimod and ssRNA40 were used, specific agonists of TLR7 and TLR8, respectively. […] To confirm this conclusion, transfected were TLR8-HEK-293 cells with a plasmid encoding a dominant negative form of TLR8 (TLR8DN) and treated these cells with the miRNAs of interest. In TLR8DN cells, the activation of NF-κB by miR-21 and miR-29a was abolished (FIG. 3F). […] NF-κB activity was assessed by QUANTI-Blue Assay (Invivogen). […] Levels of SEAP can be easily determined with QUANTI-Blue, a detection medium that turns purple/blue in the presence of alkaline phosphatase. […] The plate was then incubated at 37° C. for 1-3 h and SEAP levels were determined by reading the plate with a spectrophotometer at 620-655 nm (SpectraMax, Molecular Devices).

Take “miR-147: synthetic mature miRNA (SEQ ID NO: 3), sequence similar to RNA33, Dotap formulation (GUGUGUGGAAAUGCUUCUGC; DOTAP formulation, further chemistry not given here)”: the NF-κB activation result was “only in TLR8-HEK-293 cells”.
